Test results reported in patent EP0489404A2, “Method of treating shock using a potassium channel activator” (E.R. SQUIBB & SONS, INC., priority 1990, dated 1992).

Experiments:
[1] = tested on: Ischemic Isolated Rat Heart; test: Globally ischemic isolated perfused rat heart (Langendorff), protective effect; parameters: species or system Male Sprague-Dawley rats; LDH (Lactate Dehydrogenase Release), Reperfusion (Post-Ischemic Event): unit not given here; conditions: 10 µM; for FLOW (coronary flow), Pre-ischemic Event (Post Drug) / HR (Heart Rate), Pre-ischemic Event (Post Drug) / LVDP (Left Ventricular Developed Pressure), Pre-ischemic Event (Post Drug): after 10 minutes drug treatment, n = 4; for FLOW (coronary flow), Pre-ischemic Event (Post Drug) / HR (Heart Rate), Pre-ischemic Event (Post Drug) / LVDP (Left Ventricular Developed Pressure), Pre-ischemic Event (Post Drug) / DP (Double Product), Pre-ischemic Event (Post Drug): before ischemia; for DP (Double Product), Pre-ischemic Event (Post Drug) / DP (Double Product), Reperfusion (Post-Ischemic Event): HR x LVDP divided by 1000; for DP (Double Product), Pre-ischemic Event (Post Drug): lower = more cardiodepressant; for FLOW (coronary flow), Reperfusion (Post-Ischemic Event) / HR (Heart Rate), Reperfusion (Post-Ischemic Event) / LVDP (Left Ventricular Developed Pressure), Reperfusion (Post-Ischemic Event) / DP (Double Product), Reperfusion (Post-Ischemic Event) / LDH (Lactate Dehydrogenase Release), Reperfusion (Post-Ischemic Event): occlusion 25 minutes, reperfusion 30 minutes; for DP (Double Product), Reperfusion (Post-Ischemic Event): higher = more cardioprotective; for LDH (Lactate Dehydrogenase Release), Reperfusion (Post-Ischemic Event): lower = greater cardioprotection
Description: Grover et al., "Dissociation of Cardiodepression from Cardioprotection with Calcium Antagonists: Diltiazem Protects Ischemic Rat Myocardium with a Lower Functional Cost as Compared with Verapamil and Nifedipine", Journal of Cardiovascular Pharmacology; pages 331-340, Vol. 14, No. 2 (1989), describe a model for testing globally ischemic, isolated rat hearts. This model is expected to be a reliable indicator of protection since the laboratory-induced isolation and ischemic event including perfusion with a cardioplegic solution, reasonably duplicates the environment and conditions for the heart during and after a shock or trauma episode. Grover et al. express the efficacy of protective agents as the amount of lactate dehydrogenase (LDH) release and post-ischemic cardiac function. Lactate dehydrogenase is an enzyme released in the heart during an ischemic event and is an index of cardiac cell necrosis. In the Grover et al. model, this is measured during reperfusion and an agent which provides for lower release levels of LDH is considered to offer greater cardioprotection since lower LDH indicates a smaller infarct size. Cardiac function is determined using the double product (DP) of heart rate times the left ventricular developed pressure (LVDP) divided by 1,000.
The lower the value for DP before the ischemic isolation of the heart for a given agent, the more cardiodepressant it is considered to be and the higher the value of DP is during reperfusion, the more cardioprotective the agent is.
Male Sprague-Dawley rats (450-550 g) were used in all experiments. The rats were anesthetized using 30 mg/kg sodium pentobarbital (i.p.). They were intubated and then treated with i.v. heparin (1000 U/kg). While being mechanically ventilated, their hearts were perfused in situ via retrograde cannulation of the aorta. The hearts were then excised and quickly moved to a Langendorff apparatus where they were perfused with Krebs-Henseleit bicarbonate buffer (112 mM […], 25 mM NaHCO₃, 5 mM KCl, 1.2 mM MgSO₄, 1 mM KH₂PO₄, 1.25 mM CaCl₂, 11.5 mM dextrose, and 2 mM pyruvate bubbled with 95% O₂ - 5% CO₂) at a constant pressure (75 mm Hg). A water filled latex balloon attached to a metal cannula was then inserted into the left ventricle and connected to a Statham pressure transducer for measurement of left ventricular pressure. The hearts were allowed to equilibrate for 15 minutes at which time end diastolic pressure (EDP) was adjusted to 5 mm Hg and this was maintained for 5 minutes. Pre-ischemia or pre-drug function, heart rate and coronary flow (extracorporeal electromagnetic flow probe, Carolina Medical Electronics, King, N.C.) were then measured. Cardiac function was determined using the double product of heart rate (HR) X left ventricular developed pressure (LVDP) divided by 1000. Cardiac temperature was maintained throughout the experiment by submerging the hearts in 37°C buffer which was allowed to accumulate in a stoppered, heated chamber.
Once the baseline measurements were taken, the hearts were treated with 10 µM cromakalim, compounds C', C'', E', E'', F', F'' (n = 4 each) or with vehicle buffer (0.01% DMSO, n = 7). All of these hearts were treated with their respective drugs or vehicle for ten minutes. At this time, post-drug cardiac function and flow were measured and then the hearts were made globally ischemic by shutting off the buffer perfusion. The ischemia was maintained for 25 minutes, the hearts were then reperfused with nondrug treated buffer. Reperfusion was maintained for a total of 30 minutes and at this time reperfusion function and flow were again determined.

rat aorta = test: Inhibition of agonist-induced constriction in rat aorta (vasodilation, non-ischemic tissue); conditions: concentration inhibiting agonist-induced constriction by 50 percent, normal
Description: Also included in the TABLE are the IC₅₀(m) values for rat aorta. The IC₅₀ (rat aorta) value is the concentration of the particular compound which inhibits agonist-induced constriction in rat aorta by 50 percent. Thus, the lower values indicate greater vasodilation and it should be noted that these values are for normal, i.e., non-ischemic, tissue. It can be seen that cromakalim with an IC₅₀ of 5.7 x 10⁻⁸ m is a relatively potent vasodilator in non-ischemic tissue.

SMILES | FLOW (coronary flow), Pre-ischemic Event (Post Drug) [1] | HR (Heart Rate), Pre-ischemic Event (Post Drug) [1] | LVDP (Left Ventricular Developed Pressure), Pre-ischemic Event (Post Drug) [1] | DP (Double Product), Pre-ischemic Event (Post Drug) [1] | FLOW (coronary flow), Reperfusion (Post-Ischemic Event) [1] | HR (Heart Rate), Reperfusion (Post-Ischemic Event) [1] | LVDP (Left Ventricular Developed Pressure), Reperfusion (Post-Ischemic Event) [1] | DP (Double Product), Reperfusion (Post-Ischemic Event) [1] | LDH (Lactate Dehydrogenase Release), Reperfusion (Post-Ischemic Event) [1] | IC50 (rat aorta) | also measured
CC1(C)Oc2ccc(C#N)cc2[C@@H](NC(=NC#N)Nc2ccccc2)[C@@H]1O [C'"] | 15.2 | 244 beats/min | 134 mmHg | 32.7 | 13.2 | 244 beats/min | 74 mmHg | 18.2 | 10.41 | 1.37 µM | FLOW (coronary flow), Pre-ischemic Event (Post Drug) ([1]; listed as C"): 20.4; HR (Heart Rate), Pre-ischemic Event (Post Drug) ([1]; listed as C"): 250 beats/min; LVDP (Left Ventricular Developed Pressure), Pre-ischemic Event (Post Drug) ([1]; listed as C"): 121 mmHg; DP (Double Product), Pre-ischemic Event (Post Drug) ([1]; listed as C"): 29.8; DP (Double Product), Reperfusion (Post-Ischemic Event) ([1]; listed as C"): 14.8; FLOW (coronary flow), Reperfusion (Post-Ischemic Event) ([1]; listed as C"): 10.1; HR (Heart Rate), Reperfusion (Post-Ischemic Event) ([1]; listed as C"): 240 beats/min; LVDP (Left Ventricular Developed Pressure), Reperfusion (Post-Ischemic Event) ([1]; listed as C"): 62 mmHg; LDH (Lactate Dehydrogenase Release), Reperfusion (Post-Ischemic Event) ([1]; listed as C"): 9.88; IC50 (rat aorta; listed as C"): 0.447 µM
CC1(C)Oc2ccc(C#N)cc2C(N2CCCC2=O)C1O (stereo not shown) [Cromakalim, cromakalim, reference compound] | 23.9 | 250 beats/min | 131 mmHg | 33.0 | 13.9 | 234 beats/min | 87 mmHg | 20.5 | 8.89 |  | IC50 (rat aorta; Rattus norvegicus): 0.057 µM
CC1(C)Oc2ccc(C#N)cc2[C@@H](NC(=S)Nc2ccccc2)[C@@H]1O [E'] | 15.3 | 236 beats/min | 141 mmHg | 32.75 | 13.4 | 229 beats/min | 55 mmHg | 14.83 | 13.46 | 1.71 µM | FLOW (coronary flow), Pre-ischemic Event (Post Drug) ([1]; listed as E"): 24.8; HR (Heart Rate), Pre-ischemic Event (Post Drug) ([1]; listed as E"): 234 beats/min; LVDP (Left Ventricular Developed Pressure), Pre-ischemic Event (Post Drug) ([1]; listed as E"): 128 mmHg; DP (Double Product), Pre-ischemic Event (Post Drug) ([1]; listed as E"): 30.06; DP (Double Product), Reperfusion (Post-Ischemic Event) ([1]; listed as E"): 18.52; FLOW (coronary flow), Reperfusion (Post-Ischemic Event) ([1]; listed as E"): 17.56; HR (Heart Rate), Reperfusion (Post-Ischemic Event) ([1]; listed as E"): 230 beats/min; LVDP (Left Ventricular Developed Pressure), Reperfusion (Post-Ischemic Event) ([1]; listed as E"): 81 mmHg; LDH (Lactate Dehydrogenase Release), Reperfusion (Post-Ischemic Event) ([1]; listed as E"): 8.77; IC50 (rat aorta; listed as E"): 0.805 µM
CC1(C)Oc2ccc(C#N)cc2[C@@H](NC(=NC#N)Oc2ccccc2)[C@@H]1O [F'] | 16.0 | 238 beats/min | 128 mmHg | 30.5 | 10.4 | 212 beats/min | 28 mmHg | 6.2 | 21.7 | > 100 µM | FLOW (coronary flow), Pre-ischemic Event (Post Drug) ([1]; listed as F"): 28.3; HR (Heart Rate), Pre-ischemic Event (Post Drug) ([1]; listed as F"): 239 beats/min; LVDP (Left Ventricular Developed Pressure), Pre-ischemic Event (Post Drug) ([1]; listed as F"): 159 mmHg; DP (Double Product), Pre-ischemic Event (Post Drug) ([1]; listed as F"): 38.02; DP (Double Product), Reperfusion (Post-Ischemic Event) ([1]; listed as F"): 14.72; FLOW (coronary flow), Reperfusion (Post-Ischemic Event) ([1]; listed as F"): 13.92; HR (Heart Rate), Reperfusion (Post-Ischemic Event) ([1]; listed as F"): 247 beats/min; LVDP (Left Ventricular Developed Pressure), Reperfusion (Post-Ischemic Event) ([1]; listed as F"): 59 mmHg; LDH (Lactate Dehydrogenase Release), Reperfusion (Post-Ischemic Event) ([1]; listed as F"): 10.65; IC50 (rat aorta; listed as F"): 4.9 µM
